From patent publication US20070196514A1, “Prostate cancer treatment with glycogen synthase kinase-3beta inhibitors” (priority 2006, published 2007)

Legend:
C4-2 cells = test: MTT cell growth assay; format: cell-based, human; settings: equimolecular concentrations of LiCl, NaCl, KCl, three days
Method: (§1) For MTT-based cell growth assays, cells seeded in 96-well plates were serum-starved for 48 hours, and were then treated with vehicle or different reagents for different time periods as indicated in the figures. MTT assay were carried out using a pre-assembled kit (Sigma) according to the manufacturer's manual.
(§2) To rule out the eventual intervention of the chloride anion and the osmotic disturbance, the effect of LiCl was compared with sodium chloride (“NaCl”) and potassium chloride (“KCl”) at equimolecular concentrations in both LNCaP and PC-3 cell lines. In addition, the androgen-insensitive C4-2 cell line was included. To easily handle the experiments while multiple comparisons were taken in place, a MTT assay was used to assess cell growth.

PC-3 cells [1] = test: MTT cell growth assay; format: cell-based, human; settings: equimolecular concentrations of LiCl, NaCl, KCl, three days
Method: as §1, §2

LNCaP cells [2] = test: Western blot of cell cycle-related proteins; format: cell-based, human
Method: Western blot was carried out as described previously (Liao 2004, Liao 2003, and Liao 2005). Briefly, cells were pellets and lysed in radio-immunoprecipitation assay (“RIPA”) buffer containing protease inhibitors (Half™ Protease Inhibitor Cocktail Kit, PIERCE, Rockford, Ill.). Proteins were separated on SDS-PAGE gels and transferred to Immuno-Blot™ PVDF membrane (BIO-RAD, Hercules, Calif.). Membranes were blocked in a tris-buffered solution plus Tween 20 (“TBST”) solution with 5% nonfat dry milk and incubated with primary antibodies overnight at 4° C. Immunoreactive signals were detected by horseradish peroxidase-conjugated secondary antibodies (Santa Cruz Biotech., Santa Cruz, Calif.) followed by SuperSingnal® WestFeml® Maximum Sensitivity Substrate (PIERCE).
To verify those alterations at a protein level, two series experiments were conducted using Western blot technique. The first involved a time-course experiment. After serum starvation, LNCaP cells were left untreated or treated as before with LiCl for up to 24 hours. Cells were harvested at 18-24 hours.
Next, a dose-response experiment was performed. Following serum starvation for 24 hours, LNCaP cells were treated with BIO at different doses for another 24 hours. Control cells received the vehicle as treatment.

AR-null PC-3 xenografts = test: mouse xenograft model, protocol A; format: in vivo, nude mice; settings: LiCl 2 mg/kg i.p. daily
Method: All animal studies were conducted under an approved Institutional Animal Care and Use Committee protocol. Single cell suspensions (2×10^6 cells in 0.1 ml of RPMI1640 medium plus 10% FBS) were inoculated subcutaneously (s.c.) into the rear flanks (two sites/mouse) of 6 to 7 weeks old male nude mice (Charles River, Wilmington, Mass.). For protocol A, mice were randomly divided into two groups (5 animals each). On next day after inoculation, one group of animals received i.p. injection of LiCl at a daily dose of 2 mg/kg body weight. LiCl was dissolved in PBS. The control groups of animals received PBS alone in the same volume. Xenograft development and growth were monitored for 8 weeks. The tumor dimensions were measured twice a week. The tumor volume was calculated by the formula of L×W×H×0.5236 (Miyake 2001). At the end of treatment, xenograft tumors were extirpated, and the final tumor size and weight, as well as animal weight were measured. For protocol B, treatment began until tumor became palpable or 50 mm^3 in size, and LiCl or PBS was injected (5 animals each group) as above for a two-week course. Tumor size and weight were measured at the end of treatment. For BrdU in vivo labeling, the animals were injected i.p. with 0.5 ml of a 10-mM BrdU solution (Invitrogen) 2 hours before sacrifice. For experiments involving LNCaP-BclxL SB216763 subline cells (Liao 2005) were inoculated as above, and SB216763 treatment was started two weeks later when palpable xenografts were established. The SB216763 for animal use was purchased from Biomol (Plymouth Meeting, Pa.) and dissolved in a formula containing 50% N,N-dimethylacetamide (“DMA”), 45% polyethylene glycol 400 (“PEG-400”) and 5% Tween-80. SB216763 (2 mg/kilogram/bodyweight) or the solvent in 20 μl volume was injected i.p. three times a week. Tumor growth was monitored as discussed herein.
This example investigated GSK-3β inhibitor-induced suppression of cancer cell growth in vivo. A mouse xenograft model was used to examine the effect of GSK-3β inhibitor on tumor growth in two different strategies (protocol A and B). In both protocols, LiCl was delivered at a daily dose i.p. of 2 mg/kg of body weight. This dose level is more than 100-fold lower than a therapeutic dose for mental diseases in mouse (Noble 2005) or human (Moore 2002).
In protocol A, LiCl treatment was started on the same day when AR-null PC-3 cancer cells were inoculated into animals. AR-null PC-3 xenografts were developed around 4 weeks after inoculation in PBS-treated control animals.

PC-3 cells [3] = test: clonogenic assay; format: cell-based, human; settings: LiCl 10 mM, 14 days
Method: For clonogenic assays, 1.0×10^3 cells were seeded in a 35-mm dish and cultured in a medium containing LiCl at the indicated doses. The cultures were monitored daily for colony formation. On day 14, the cultures were washed with phosphate-buffered saline (“PBS”), fixed, and stained as described previously (Liao 2005). The colonies were counted and photographed under an inverted microscope.
Next, the clonogenic assay was used to test the effect of LiCl on cell colony formation. The clonogenic survival fractions of the cells cultured in the presence or absence of increasing concentration of LiCl were measured in two cell lines, androgen refractory PC-3 (data shown) and androgen-responsive LNCaP (data not shown).

LNCaP cells [4] = test: trypan blue viable cell counting; format: cell-based, human
Method: (§3) For cell counting assay, cells were seeded at the density of 5×10^4 cells in 12-well plates in duplicates and allowed for attachment overnight. Cells were harvested daily for three days and the number of viable cells was counted using a hemocytometer after staining in trypan blue solution (Liao 2003).
(§4) First, the effect of LiCl on cell growth was investigated. AR-positive, androgen-dependent LNCaP cells or AR-null PC-3 cells were seeded in a 12-well plate overnight and then treated with or without LiCl in different doses.

PC-3 cells [5] = test: trypan blue viable cell counting; format: cell-based, human
Method: as §3, §4

[6] = protocol A, end of 8-week treatment
[7] = LiCl at a dose of less than 3 mM, up to three days

[Cl-].[Li+] [LiCl, Lithium chloride]
cell growth inhibition (MTT) (C4-2 cells): dramatic inhibition | cell growth inhibition (MTT) (PC-3 cells [1]): dramatic inhibition | protein levels of cyclin B, PCNA, pRb, cdc2, cdc42 and GSK-3β (Western blot) (LNCaP cells [2]; LiCl time-course): no significant change | serum-induced increase of cyclins A and E, cdc6 and cdc25C protein (Western blot) (LNCaP cells [2]; LiCl time-course up to 24 hours): dramatically suppressed | protein levels of cyclin D1 (Western blot) (LNCaP cells [2]; LiCl time-course, vs control): slightly higher | p21CIP1 protein expression (Western blot) (LNCaP cells [2]; LiCl time-course, vs untreated control): increased significantly | animal body weight and daily activities, treatment vs control (AR-null PC-3 xenografts; nude mice): no significant difference | abnormality of daily activities / side effects (AR-null PC-3 xenografts; nude mice, both protocols A and B): no obvious abnormality of daily activities or any sign of side effect | xenograft development, time after inoculation (AR-null PC-3 xenografts; protocol A, PBS control around 4 weeks): 6-7 weeks | tumor volume vs PBS control (AR-null PC-3 xenografts; [6]): significant reduction | tumor weight vs PBS control (AR-null PC-3 xenografts; [6]): significant reduction | clonogenic surviving fractions (PC-3 cells [3]): significantly suppressed | inhibition of cell growth (viable cell count) (LNCaP cells [4]; LiCl 10 mM): significantly inhibited | mean doubling-time (LNCaP cells [4]; LiCl 10 mM (no treatment 23.7 hours)): 33.3 h | inhibition of cell growth (viable cell count) (LNCaP cells [4]; [7]): no obvious inhibition | inhibition of cell growth (viable cell count) (PC-3 cells [5]; LiCl 10 mM): significantly inhibited | mean doubling-time (PC-3 cells [5]; LiCl 10 mM (no treatment 21.5 hours)): 30.2 h | inhibition of cell growth (viable cell count) (PC-3 cells [5]; [7]): no obvious inhibition
